Test results reported in PubChem BioAssay AID588588 (Sanford-Burnham Center for Chemical Genomics, 2011).
Several values for one entry are separate records, joined by “and”; a condition that tells them apart may be missing. Equal values may be shown once. Activity calls are given as the source filed them. No rule for the calls is given here.

Target: glucose-6-phosphate dehydrogenase-6-phosphogluconolactonase (Plasmodium falciparum 3D7)
Test: inhibition of P. falciparum G6PD activity – biochemical, end-point NADPH detection, orthogonal assay, SAR follow-up (AID 588588)
Details: recombinant PfG6PD-6PGL, direct NADPH end-point detection

| Compound | IC50 |
| --- | --- |
| Cc1cccc(C(=O)Nc2nnc(S(=O)(=O)N3c4ccccc4CC3C)s2)c1 (configuration not stated) | > 80 µM (inactive) |
| CCC(C)N(CCNC(=O)c1ccc2c(c1)NC(=O)c1ccccc1S2)C1CCCCC1 (configuration not stated) | 6.22 µM |
| CN(C)CCNC(=O)c1ccc2c(c1)NC(=O)/C(=C\c1ccccc1F)S2 | > 80 µM (inactive) |
| O=C(Nc1nnc(S(=O)(=O)N2CCCCCC2)s1)c1ccco1 | > 80 µM (inactive) |
| CCCN(CCC)CCNC(=O)c1ccc2c(c1)NC(=O)/C(=C/c1ccccc1)S2 | > 80 µM (inactive) |
| CCCN(CCC)CCNC(=O)c1ccc2c(c1)NC(=O)/C(=C\c1ccc(C)cc1)S2 | > 80 µM (inactive) |
| CCN(CC)CCNC(=O)c1ccc2c(c1)NC(=O)/C(=C\c1cccc(C)c1)S2 | > 80 µM (inactive) |
| COc1ccccc1C(=O)Nc1nnc(S(=O)(=O)N2CCCCCC2)s1 | > 80 µM (inactive) |
| Cc1cccc(/C=C2/Sc3ccc(C(=O)NCCN4CCCC4)cc3NC2=O)c1 | > 80 µM (inactive) |
| CN(CCNC(=O)c1ccc2c(c1)NC(=O)c1ccccc1S2)C1CCCCC1 | > 80 µM (inactive) |
| O=C(Nc1nnc(S(=O)(=O)N2CCCCCC2)s1)c1ccccc1F | > 80 µM (inactive) |
| Cc1ccccc1C(=O)Nc1nnc(S(=O)(=O)N2CCCc3ccccc32)s1 | > 80 µM (inactive) |
| CCN1CCCC1CNC(=O)c1ccc2c(c1)N(Cc1ccccc1F)C(=O)c1ccccc1S2 (configuration not stated) | > 80 µM (inactive) |
| COc1ccc(/C=C2/Sc3ccc(C(=O)NCCN4CCCCCC4)cc3NC2=O)cc1 | > 80 µM (inactive) |
| O=C1Nc2cc(C(=O)NCCN3CCCC3)ccc2S/C1=C/c1ccccc1Cl | > 80 µM (inactive) |
| O=C(Nc1nnc(S(=O)(=O)N2CCOCC2)s1)c1cccc(F)c1 | > 80 µM (inactive) |
| O=C(Nc1nnc(S(=O)(=O)N2CCCCCC2)s1)c1cccc(Cl)c1 | > 80 µM (inactive) |
| CCN1CCCC1CNC(=O)c1ccc2c(c1)NC(=O)/C(=C/c1ccccc1C)S2 (configuration not stated) | > 80 µM (inactive) |
| O=C1COc2ccc(C(=O)NCCN3CCOCC3)cc2N1 | > 80 µM (inactive) |
| O=C1Nc2cc(C(=O)NCCN3CCCC3)ccc2S/C1=C\c1ccccc1F | > 80 µM (inactive) |
| Cc1ccccc1C(=O)Nc1nnc(S(=O)(=O)N2CCCCCC2)s1 | > 80 µM (inactive) |
| O=C(Nc1nnc(S(=O)(=O)N2CCCc3ccccc32)s1)c1cccc(F)c1 | > 80 µM (inactive) |
| CCN1CCCC1CNC(=O)c1ccc2c(c1)NC(=O)/C(=C\c1ccccc1Cl)S2 (configuration not stated) | > 80 µM (inactive) |

| Compound | IC50 |
| --- | --- |
| CN(C)CCNC(=O)c1ccc2c(c1)NC(=O)CO2 | > 80 µM (inactive) |
| O=C1COc2ccc(C(=O)NCCN3CCCC3)cc2N1 | > 80 µM (inactive) |
| COc1cccc(C(=O)Nc2nnc(S(=O)(=O)N3CCCCCC3)s2)c1 | > 80 µM (inactive) |
| CC1Cc2ccccc2N1S(=O)(=O)c1nnc(NC(=O)c2cccc(Br)c2)s1 (configuration not stated) | > 80 µM (inactive) |
| Cc1ccc(C(=O)Nc2nnc(S(=O)(=O)N3CCCCCC3)s2)cc1 | > 80 µM (inactive) |
| COc1ccc(C(=O)Nc2nnc(S(=O)(=O)N3CCCCCC3)s2)cc1OC | > 80 µM (inactive) |
| O=C(Nc1nnc(S(=O)(=O)N2CCCCCC2)s1)c1cccc(Br)c1 | > 80 µM (inactive) |
| CCN1CCCC1CNC(=O)c1ccc2c(c1)NC(=O)/C(=C/c1ccccc1F)S2 (configuration not stated) | > 80 µM (inactive) |
| CCN(CC)CCNC(=O)c1ccc2c(c1)NC(=O)/C(=C\c1ccccc1Cl)S2 | > 80 µM (inactive) |
| O=C(Nc1nnc(S(=O)(=O)N2CCCCC2)s1)c1cccc(F)c1 | > 80 µM (inactive) |
| CCN1CCCC1CNC(=O)c1ccc2c(c1)N(Cc1ccc(C(F)(F)F)cc1)C(=O)c1ccccc1S2 (configuration not stated) | > 80 µM (inactive) |
| CCN(CC)CCNC(=O)c1ccc2c(c1)N(Cc1cc(C)ccc1C)C(=O)c1ccccc1S2 | > 80 µM (inactive) |
| CN(C)CCNC(=O)c1ccc2c(c1)NC(=O)/C(=C\c1cccc(Cl)c1)S2 | > 80 µM (inactive) |
| CCN(CCNC(=O)c1ccc2c(c1)N(CC)C(=O)c1ccccc1S2)c1ccccc1 | > 80 µM (inactive) |
| CCN(CC)CCNC(=O)c1ccc2c(c1)NC(=O)/C(=C\c1ccccc1F)S2 | > 80 µM (inactive) |
| CN1CCN(C(=O)c2ccc3c(c2)NC(=O)/C(=C/c2ccccc2Cl)S3)CC1 | > 80 µM (inactive) |
| CCN(CC)CCNC(=O)c1ccc2c(c1)N(Cc1ccc(C)cc1)C(=O)c1ccccc1S2 | > 80 µM (inactive) |
| O=C1Nc2cc(C(=O)NCCN3CCCCC3)ccc2S/C1=C\c1ccccc1F | > 80 µM (inactive) |
| CCOc1ccc(C(=O)Nc2nnc(S(=O)(=O)N3CCCCCC3)s2)cc1 | > 80 µM (inactive) |
| Cc1ccc(C(=O)Nc2nnc(S(=O)(=O)N3CCCc4ccccc43)s2)cc1 | > 80 µM (inactive) |
| CCN1CCCC1CNC(=O)c1ccc2c(c1)NC(=O)/C(=C/c1ccccc1OC)S2 (configuration not stated) | > 80 µM (inactive) |
| COc1ccc(/C=C2/Sc3ccc(C(=O)NCCN(C)C)cc3NC2=O)cc1 | > 80 µM (inactive) |
| O=C(NCCN1CCCC1)c1ccc2c(c1)NC(=O)c1ccccc1S2 | > 80 µM (inactive) |

| Compound | IC50 |
| --- | --- |
| O=C(Nc1nnc(S(=O)(=O)N2CCCCCC2)s1)c1ccc(F)cc1 | > 80 µM (inactive) |
| CCN(CC)CCNC(=O)c1ccc2c(c1)N(Cc1ccccc1Cl)C(=O)c1ccccc1S2 | > 80 µM (inactive) |
| CN(C)CCNC(=O)c1ccc2c(c1)NC(=O)/C(=C/c1ccccc1F)S2 | > 80 µM (inactive) |
| CCN1CCCC1CNC(=O)c1ccc2c(c1)NC(=O)/C(=C/c1cccc3ccccc13)S2 (configuration not stated) | > 80 µM (inactive) |
| O=C1COc2ccc(C(=O)NCCN3CCCCC3)cc2N1 | > 80 µM (inactive) |
| CCN(CC)CCNC(=O)c1ccc2c(c1)NC(=O)/C(=C/c1ccccc1)S2 | > 80 µM (inactive) |
| CCN1CCCC1CNC(=O)c1ccc2c(c1)NC(=O)/C(=C\c1ccccc1F)S2 (configuration not stated) | > 80 µM (inactive) |
| O=C1Nc2cc(C(=O)NCCN3CCCCCC3)ccc2S/C1=C/c1ccccc1Cl | > 80 µM (inactive) |
| Cc1cccc(C(=O)Nc2nnc(S(=O)(=O)N3CCCCCC3)s2)c1 | > 80 µM (inactive) |
| O=C(Nc1nnc(S(=O)(=O)N2CCCCCC2)s1)c1cccc(F)c1 | > 80 µM (inactive) |
| CN1CCCC1CCNC(=O)c1ccc2c(c1)NC(=O)/C(=C/c1ccccc1F)S2 (configuration not stated) | > 80 µM (inactive) |
| CCN(CC)CCNC(=O)c1ccc2c(c1)NC(=O)c1ccccc1S2 | 67.3 µM and 69.8 µM |
| O=C(NCCN1CCOCC1)c1ccc2c(c1)NC(=O)c1ccccc1O2 | > 80 µM (inactive) |
| O=C(NCCN1CCCCC1)c1ccc2c(c1)NC(=O)c1ccccc1O2 | 50.3 µM |
| CCN(CC)CCNC(=O)c1ccc2c(c1)NC(=O)/C(=C\c1ccc(OC)c(OC)c1)S2 | > 80 µM (inactive) |
| Cc1cccc(C(=O)Nc2nnc(S(=O)(=O)N3CCOCC3)s2)c1 | > 80 µM (inactive) |
| CCN1CCC[C@@H]1CNC(=O)c1ccc2c(c1)NC(=O)/C(=C/c1ccccc1F)S2 | > 80 µM (inactive) |
| O=C1Nc2cc(C(=O)NCCN3CCOCC3)ccc2S/C1=C\c1ccccc1F | > 80 µM (inactive) |
| CCN1CCCC1CNC(=O)c1ccc2c(c1)NC(=O)c1ccccc1O2 (configuration not stated) | 24.2 µM |
| Cc1cccc(C(=O)Nc2nnc(S(=O)(=O)N3CCC(C)CC3)s2)c1 | > 80 µM (inactive) |
| O=C1Nc2cc(C(=O)NCCN3CCCCCC3)ccc2S/C1=C/c1ccccc1F | > 80 µM (inactive) |
